Results as given in publication PMC8347134, “Preparation of Antiproliferative Terpene-Alkaloid Hybrids by Free Radical-Mediated Modification of ent-Kauranic Derivatives” (Molecules, 2021).
Read-outs that look alike come from different tables or passages of the source.

Tests used:
Format in all cases: cell-based
hTERT RPE-1 = test: Parallel cytotoxicity assay on non-cancerous retina cells
Experimental: (§1) A parallel cytotoxicity assay was performed on non-cancerous retina cells (hTERT RPE-1) in order to estimate the selectivity of the investigated compounds towards tumor cells. The inhibition of cell proliferation was calculated as IC50 by interpolation based on the semi-log dose response.
(§2) All cell lines were cultured as recommended by the suppliers. Culture media were purchased from Gibco Life Technologies, USA, and supplemented with 10% fetal bovine serum (HyClone, GE Healthcare Life Sciences, Logan, UT, USA). […] All stock solutions were prepared in DMSO.
(§3) After overnight incubation, cells were treated with the test compounds at seven different concentrations ranging from 100 to 6.4 × 10^−3 µM. […] The plates were incubated at 37 °C and monitored for 72 h in an IncuCyte® device (Essen BioScience Inc., Ann Arbor, MI, USA) for real-time imaging. Images were taken every 3 h, with one field imaged per well under 10× magnification. Cell growth was then quantified based on the percent cellular confluence as analysed by the IncuCyte® image analysis software and used to calculate IC50 values by linear interpolation. All tests have been performed in duplicate and the average values have been calculated.

[1] = test system: Capan-1 (pancreatic adenocarcinoma); test: Cell proliferation assay (IncuCyte); settings: for IC50: Homo sapiens, CAPAN-1, 72 h; for SI Capan-1: ratio IC50 hTERT RPE-1 / IC50 Capan-1
Experimental: as §1, §2, §3

[2] = test system: DND-41 (acute lymphoblastic leukemia); test: Cell proliferation assay (IncuCyte); settings: for IC50: DND41, 72 h; for SI DND-41: ratio IC50 hTERT RPE-1 / IC50 DND-41
Experimental: as §1, §2, §3

[3] = test system: HCT-116 (colorectal carcinoma); test: Cell proliferation assay (IncuCyte); settings: for IC50: Homo sapiens, HCT-116, 72 h; for SI HCT-116: ratio IC50 hTERT RPE-1 / IC50 HCT-116
Experimental: as §1, §2, §3

[4] = test system: HL-60 (acute myeloid leukemia); test: Cell proliferation assay (IncuCyte); settings: for IC50: Homo sapiens, HL-60, 72 h; for SI HL-60: ratio IC50 hTERT RPE-1 / IC50 HL-60
Experimental: as §1, §2, §3

[5] = test system: K-562 (chronic myeloid leukemia); test: Cell proliferation assay (IncuCyte); settings: for IC50: Homo sapiens, K562, 72 h; for SI K-562: ratio IC50 hTERT RPE-1 / IC50 K-562
Experimental: as §1, §2, §3

[6] = test system: NCI-H460 (lung carcinoma); test: Cell proliferation assay (IncuCyte); settings: for IC50: Homo sapiens, NCI-H460, 72 h; for SI NCI-H460: ratio IC50 hTERT RPE-1 / IC50 NCI-H460
Experimental: as §1, §2, §3

[7] = test system: Z-138 (non-Hodgkin lymphoma); test: Cell proliferation assay (IncuCyte); settings: for IC50: Homo sapiens, Z-138, 72 h; for SI Z-138: ratio IC50 hTERT RPE-1 / IC50 Z-138
Experimental: as §1, §2, §3

[8] = test system: seven different tumor cell lines; test: Proliferation assays, best value over the seven tumor cell lines; settings: for SImax: highest selectivity index over the tumor cell lines (Figure 4); for IC50 for retina (hTERT RPE-1) cells fold higher than for cancerous cells: highest selectivity indices
Experimental: as §1, §2, §3

[9] = hTERT-RPE1, 72 h, duplicate, mean ± deviation
[10] = lowest IC50 over the tumor cell lines (Figure 4), read-out: IC50 min

Row | SMILES | IC50 (hTERT RPE-1; [9]) [µM] | IC50 ([1]; duplicate, mean ± deviation) [µM] | SI Capan-1 [1] | IC50 ([2]; duplicate, mean ± deviation) [µM] | SI DND-41 [2] | IC50 ([3]; duplicate, mean ± deviation) [µM] | SI HCT-116 [3] | IC50 ([4]; duplicate, mean ± deviation) [µM] | IC50 ([5]; duplicate, mean ± deviation) [µM] | IC50 ([6]; duplicate, mean ± deviation) [nM] | SI NCI-H460 [6] | IC50 ([7]; duplicate, mean ± deviation) [µM] | SI Z-138 [7] | SImax [8] | IC50 [8, 10] [nM] | IC50 for retina (hTERT RPE-1) cells fold higher than for cancerous cells [8] | other results
1 | COC(=O)C1(C)CCCC2(C)C3CCC4CC3(C=C4CCC#N)CCC12 (centres unmarked) [Compound 16] | 38.2 ± 5.1 | 18.1 ± 3.4 | 2.1 | 7.8 ± 1 | 4.9 | 19 ± 5.7 | 2.0 | 33.6 ± 2.6 | 58.4 ± 2.5 | 15400 ± 6000 | 2.5 | 22.1 ± 11.4 | 1.7 | 4.9 | 7800 ± 1000 | – | SI HL-60 [4]: 1.1
2 | COC(=O)[C@]1(C)CCC[C@@]2(C)[C@@H]3CC[C@@H]4C[C@@]3(CC[C@@H]21)C[C@@]4(CCC(=O)O)N=[N+]=[N-] [Compound 14] | 26.2 ± 0.9 | 44.5 ± 8.3 | – | 44.5 ± 4.8 | – | 5.8 ± 0.1 | 4.5 | 46.2 ± 9.1 | 41 | 31100 ± 1600 | – | 22.7 | 1.2 | – | – | – | –
3 | COC(=O)C1(C)CCCC2(C)C3CCC4CC3(CCC12)CC41CCCN1 (centres unmarked) [Compound 13] | 32.2 ± 2 | 11.5 ± 1 | 2.8 | 6.1 ± 1.1 | 5.3 | 11.6 ± 0.5 | 2.8 | 8.3 ± 1.3 | 3.2 ± 1 | 1000 ± 100 | 32.2 | 9.5 ± 0.9 | 3.4 | 32.2 | 1000 ± 100 | up to 43 fold | SI HL-60 [4]: 3.9; SI K-562 [5]: 10.1
4 | COC(=O)C1(C)CCCC2(C)C1CCC13CC(CCC21)C(CCC(=O)O)(N=[N+]=[N-])C3O (centres unmarked) [Compound 24] | 31.7 ± 3.1 | 33.2 ± 7.6 | – | 38.9 ± 4.1 | – | 18.8 ± 8 | 1.7 | 49.3 ± 5 | 76.3 ± 1.4 | 41800 ± 5300 | – | 25.2 ± 0.3 | 1.3 | – | – | – | –
5 | CC1(C(=O)O)CCCC2(C)C1CCC13CC(CCC21)C(CCC#N)(N=[N+]=[N-])C3O (centres unmarked) [Compound 25] | 33.6 ± 4.5 | 6.4 ± 1.5 | 5.3 | 36.4 ± 9.8 | – | 34.4 ± 0.5 | – | > 100 | > 100 | 34000 ± 2900 | – | 52 ± 17.4 | – | 5.3 | 6400 ± 1500 | – | –
6 | CN[C@@H]1C[C@H]2O[C@@](C)([C@@H]1OC)n1c3ccccc3c3c4c(c5c6ccccc6n2c5c31)C(=O)NC4 [SP, staurosporine, reference compound] | – | – | – | – | – | – | – | – | – | – | – | – | – | – | – | – | IC50 ([2]; positive controls): 0.0086 ± 0.0015 µM; IC50 ([4]; positive controls): 0.0091 ± 0.0016 µM; IC50 ([5]; positive controls): 0.0279 ± 0.0032 µM; IC50 ([6]; positive controls): 2.2 ± 0.8 nM
7 | COC(=O)C1(C)CCCC2(C)C3CCC4CC3(CCC12)CC41CCC(=O)N1 (centres unmarked) [Compound 12] | 7.6 ± 0.5 | 1.2 ± 0.7 | 6.3 | 21.4 ± 10.1 | – | 0.8 ± 0.2 | 9.5 | 38.3 ± 17.8 | 36.4 ± 11.5 | 1400 ± 100 | 5.4 | 52 ± 33.4 | – | 9.5 | 800 ± 200 | up to 43 fold | –
8 | CCOC(=O)CCC1=C[C@@]23CC[C@H]4[C@@](C)(CCC[C@@]4(C)C(=O)OC)[C@@H]2CC[C@@H]1C3 [Compound 7] | 29.2 ± 1.2 | 37.1 ± 3.9 | – | 36.5 ± 0.7 | – | 30.7 ± 16.4 | – | 19.6 ± 7.7 | 24.7 ± 11.8 | 12000 ± 1500 | 2.4 | 27.6 ± 15.5 | 1.1 | – | – | – | SI HL-60 [4]: 1.5; SI K-562 [5]: 1.2
9 | COC(=O)CCC1(N=[N+]=[N-])C2CCC3C4(C)CCCC(C)(C(=O)OC)C4CCC3(C2)C1O (centres unmarked) [Compound 26] | 25.9 ± 0.3 | 8.3 ± 1.1 | 3.1 | 6.6 ± 1.3 | 3.9 | 9.9 ± 2.7 | 2.6 | 41.1 ± 15.9 | 36.9 ± 0.2 | 600 ± 200 | 43.2 | 21.6 ± 5.4 | 1.2 | 43.2 | 600 ± 200 | up to 43 fold | –
10 | COC(=O)[C@]1(C)CCC[C@@]2(C)[C@@H]3CC[C@@H]4C[C@@]3(CC[C@@H]21)[C@H]1OC(=O)CC=C41 [Compound 22] | 1.4 ± 0.1 | 1.3 ± 0.6 | 1.1 | 2.3 ± 0.3 | – | 0.5 ± 0.2 | 2.8 | 3.7 ± 1.3 | 2.5 ± 0.1 | 1400 ± 300 | 1 | 2.4 ± 1.1 | – | – | – | – | IC50 ([8]; tumor cell lines, read-out: IC50 values): < 1000 nM
11 | COC(=O)C1(C)CCCC2(C)C1CCC13CC(CCC21)C1(CCC(=O)N1)C3O (centres unmarked) [Compound 27] | 27.7 ± 4.3 | 3.7 ± 1.7 | 7.5 | 8.3 ± 2 | 3.3 | 4 ± 3.7 | 6.9 | 38 ± 11.8 | 56.5 ± 2.8 | 1900 ± 200 | 14.6 | 39.8 ± 10.9 | – | 14.6 | 1900 ± 200 | up to 43 fold | –
12 | CC(=O)O[C@@]12CO[C@@H]1C[C@H](O)[C@@]1(C)C(=O)[C@H](O)C3=C(C)[C@@H](OC(=O)[C@H](O)[C@@H](NC(=O)OC(C)(C)C)c4ccccc4)C[C@@](O)([C@@H](OC(=O)c4ccccc4)[C@H]21)C3(C)C [DT, docetaxel, reference compound] | – | – | – | – | – | – | – | – | – | – | – | – | – | – | – | – | IC50 (hTERT RPE-1; hTERT-RPE1, positive controls, 72 h): 0.0187 ± 0.0048 µM; IC50 ([1]; positive controls): 0.0042 ± 0.0018 µM; IC50 ([2]; positive controls): 0.0047 ± 0.0012 µM; IC50 ([3]; positive controls): 0.0022 ± 0.0008 µM; IC50 ([4]; positive controls): 0.0043 ± 0.0016 µM; IC50 ([5]; positive controls): 0.0052 ± 0.0012 µM; IC50 ([6]; positive controls): 5.5 ± 1.3 nM; IC50 ([7]; positive controls): 0.0037 ± 0.0007 µM
